Laboratory results: DBAASP
Values after ≈ are worked out from the molar mass of the structure shown. Values joined by “and” are separate entries in the source; they are usually repeats but may differ in a detail not shown here. Equal values may be shown once.

Key:
Assay in all cases: ≥ marks a high value that may be exact or a test limit, other limits are often not marked, values filed in µg/mL are converted to µM
[1] = tested on: Bacillus anthracis Sterne 34F2
[2] = tested on: Bacillus subtilis var. niger ATCC 9372
Escherichia coli K91BK = tested on: Escherichia coli K91BK
[3] = tested on: Escherichia coli ATCC 8739
[4] = tested on: Pseudomonas aeruginosa ATCC 9027
[5] = tested on: Staphylococcus aureus ATCC 6538
Proteus mirabilis = tested on: Proteus mirabilis
Pseudomonas aeruginosa = tested on: Pseudomonas aeruginosa
Staphylococcus aureus = tested on: Staphylococcus aureus
Streptococcus pyogenes = tested on: Streptococcus pyogenes
[6] = tested on: Acinetobacter baumannii NM109
[7] = tested on: Acinetobacter baumannii NM124
[8] = tested on: Acinetobacter baumannii NM35
[9] = tested on: Acinetobacter baumannii NM75
[10] = tested on: Acinetobacter baumannii NM8
Acinetobacter baumannii = tested on: Acinetobacter baumannii
[11] = tested on: Candida albicans ATCC 90028
[12] = tested on: Escherichia coli ATCC 25726
[13] = tested on: Staphylococcus aureus ATCC 25923
[14] = tested on: Bacillus subtilis ATCC 6633
[15] = tested on: Escherichia coli ATCC 25922
[16] = tested on: Klebsiella pneumoniae ATCC 10031
[17] = tested on: Micrococcus luteus ATCC 10240
[18] = tested on: Pseudomonas aeruginosa ATCC 27853
[19] = tested on: Salmonella enterica subsp. enterica serovar Typhimurium ATCC 14028
[20] = tested on: Shigella dysenteriae ATCC 9752
[21] = tested on: Staphylococcus aureus ATCC 6538P
[22] = tested on: Staphylococcus epidermidis ATCC 12228

With `CC(=O)N[C@@H](CCCCN)C(=O)N[C@@H](Cc1c[nH]c2ccccc12)C(=O)N[C@@H](CCCCN)C(=O)N[C@@H](CCCCN)C(=O)N[C@@H](CC(C)C)C(=O)N[C@@H](CC(C)C)C(=O)N[C@@H](CCCCN)C(=O)N[C@@H](CCCCN)C(=O)N1CCC[C@H]1C(=O)N[C@@H](CC(C)C)C(=O)N[C@@H](CC(C)C)C(=O)N[C@@H](CCCCN)C(=O)N[C@@H](CCCCN)C(=O)N[C@@H](CC(C)C)C(=O)N[C@@H](CC(C)C)C(=O)N[C@@H](CCCCN)C(=O)N[C@@H](CCCCN)C(=O)N[C@@H](CC(C)C)C(N)=O` [KWKKLLKKPLLKKLLKKL] the MIC [1] was ≥ 100 µM, the MIC [2] was 3.13 µM (≈ 7.16 µg/mL) and the MIC (Escherichia coli K91BK) was ≥ 100 µM.

In the case of `NCCCC[C@H](NC(=O)[C@H](Cc1c[nH]c2ccccc12)NC(=O)[C@H](Cc1ccccc1)NC(=O)[C@H](Cc1c[nH]c2ccccc12)NC(=O)[C@@H](N)CS)C(=O)N[C@@H](Cc1c[nH]c2ccccc12)C(=O)N[C@@H](Cc1c[nH]c2ccccc12)C(=O)N[C@@H](CCCN=C(N)N)C(=O)N[C@@H](CCCN=C(N)N)C(=O)N[C@@H](CCCN=C(N)N)C(=O)N[C@@H](CCCN=C(N)N)C(=O)N[C@@H](CCCN=C(N)N)C(N)=O` [CWFWKWWRRRRR], the MIC [3] is reported as 5.2 µM and 7.3 µM, the MIC [4] is reported as 5.5 µM and 8.7 µM and the MIC [5] is reported as 2.5 µM and 4.7 µM.

With `CC[C@H](C)[C@H](NC(=O)[C@H](C)NC(=O)[C@H](CCCCN)NC(=O)[C@H](CCCN=C(N)N)NC(=O)CNC(=O)[C@H](Cc1ccccc1)NC(=O)[C@H](CCCCN)NC(=O)[C@H](CCCCN)NC(=O)[C@@H](NC(=O)[C@H](CC(C)C)NC(=O)[C@H](CCCCN)NC(=O)CNC(=O)[C@H](Cc1ccccc1)NC(=O)[C@H](CC(C)C)NC(=O)CNC(C)=O)[C@@H](C)CC)C(=O)N[C@@H](CO)C(=O)N[C@@H](Cc1ccc(O)cc1)C(=O)N[C@@H](C)C(=O)N[C@H](C(=O)N[C@@H](CCCCN)C(=O)N[C@@H](CCCCN)C(=O)N[C@@H](C)C(=O)N[C@@H](CCCN=C(N)N)C(=O)NCC(=O)N[C@@H](CCCCN)C(=O)N[C@@H](Cc1cnc[nH]1)C(N)=O)C(C)C` [GLFGKLIKKFGRKAISYAVKKARGKH] the MIC [1] was 6.25 µM (≈ 18.4 µg/mL), the MIC [2] was 2.37 µM (≈ 6.98 µg/mL) and the MIC (Escherichia coli K91BK) was ≥ 100 µM.

For `NC(N)=NCCC[C@H](NC(=O)[C@H](CCCN=C(N)N)NC(=O)[C@H](CCCN=C(N)N)NC(=O)[C@H](CCCN=C(N)N)NC(=O)[C@H](Cc1c[nH]c2ccccc12)NC(=O)[C@H](Cc1c[nH]c2ccccc12)NC(=O)[C@H](Cc1c[nH]c2ccccc12)NC(=O)[C@H](Cc1c[nH]c2ccccc12)NC(=O)[C@H](CCCN=C(N)N)NC(=O)[C@H](CCCN=C(N)N)NC(=O)[C@H](CCCN=C(N)N)NC(=O)[C@@H](N)CCCN=C(N)N)C(=O)O` [RRRRWWWWRRRR], the MIC (Proteus mirabilis) was 31.8 µM (≈ 64 µg/mL), the MIC (Pseudomonas aeruginosa) was > 31.8 µM and the MIC (Staphylococcus aureus) was 3.98 µM (≈ 8 µg/mL). It also gave an MIC (Streptococcus pyogenes) of 0.807 µM (≈ 1.62 µg/mL).

For `CC[C@H](C)[C@H](NC(=O)CN)C(=O)N[C@@H](Cc1c[nH]c2ccccc12)C(=O)N[C@@H](CCCCN)C(=O)N[C@H](C(=O)N[C@H](C(=O)N[C@@H](CCCCN)C(=O)N[C@@H](CO)C(=O)N[C@@H](CCSC)C(=O)NCC(=O)N[C@@H](CCCCN)C(=O)N[C@H](C(=O)N[C@@H](Cc1ccccc1)C(=O)N[C@@H](C)C(=O)NCC(=O)N[C@@H](C)C(=O)N[C@H](C(=O)N[C@@H](CCCCN)C(=O)N[C@@H](CCC(N)=O)C(=O)N[C@@H](CC(N)=O)C(=O)N[C@@H](CC(C)C)C(N)=O)[C@@H](C)CC)C(C)C)[C@@H](C)CC)[C@@H](C)O` [GIWKTIKSMGKVFAGAIKQNL], the MIC [6] was 3 µM (≈ 6.87 µg/mL), the MIC [7] was 3 µM (≈ 6.87 µg/mL) and the MIC [8] was 3 µM (≈ 6.87 µg/mL). For the same compound, the MIC [9] was 3 µM (≈ 6.87 µg/mL), the MIC [10] was 3 µM (≈ 6.87 µg/mL) and the MIC (Acinetobacter baumannii) was 6.25 µM (≈ 14.3 µg/mL). It also gave an MIC [11] of 12.5 µM (≈ 28.6 µg/mL), an MIC [12] of 12.5 µM (≈ 28.6 µg/mL) and an MIC [13] of 100 µM (≈ 229 µg/mL).

`NC(N)=NCCC[C@H](NC(=O)[C@H](CCCN=C(N)N)NC(=O)[C@H](CCCN=C(N)N)NC(=O)[C@H](CCCN=C(N)N)NC(=O)[C@H](CCCN=C(N)N)NC(=O)[C@H](CCCN=C(N)N)NC(=O)[C@H](CCCN=C(N)N)NC(=O)[C@H](CCCN=C(N)N)NC(=O)[C@@H](N)Cc1c[nH]c2ccccc12)C(=O)O` [WRRRRRRRR] was tested, and the MIC (Proteus mirabilis) was ≥ 44 µM, the MIC (Pseudomonas aeruginosa) was > 44 µM and the MIC (Staphylococcus aureus) was 22 µM (≈ 32 µg/mL). For the same compound, the MIC (Streptococcus pyogenes) was 2.75 µM (≈ 4 µg/mL).

`CC[C@H](C)[C@H](NC(=O)CN)C(=O)N[C@@H](Cc1c[nH]c2ccccc12)C(=O)N[C@@H](CCCCN)C(=O)N[C@H](C(=O)N[C@H](C(=O)N[C@@H](CCCCN)C(=O)N[C@@H](CO)C(=O)N[C@@H](CCSC)C(=O)NCC(=O)N[C@@H](CCCCN)C(=O)N[C@H](C(=O)N[C@@H](Cc1ccccc1)C(=O)N[C@@H](C)C(=O)NCC(=O)N[C@@H](CCCCN)C(=O)N[C@H](C(=O)N[C@@H](CCCCN)C(=O)N[C@@H](CCC(N)=O)C(=O)N[C@@H](CC(N)=O)C(=O)N[C@@H](CC(C)C)C(N)=O)[C@@H](C)CC)C(C)C)[C@@H](C)CC)[C@@H](C)O` [GIWKTIKSMGKVFAGKIKQNL] was tested, and the MIC [6] was 6 µM (≈ 14.1 µg/mL), the MIC [7] was 6 µM (≈ 14.1 µg/mL) and the MIC [8] was 6 µM (≈ 14.1 µg/mL). The MIC [9] was 3 µM (≈ 7.04 µg/mL), the MIC [10] was 6 µM (≈ 14.1 µg/mL) and the MIC (Acinetobacter baumannii) was 6.25 µM (≈ 14.7 µg/mL). For the same compound, the MIC [11] was 12.5 µM (≈ 29.3 µg/mL), the MIC [12] was 25 µM (≈ 58.7 µg/mL) and the MIC [13] was 100 µM (≈ 235 µg/mL).

For `CC(=O)N[C@@H](Cc1c[nH]c2ccccc12)C(=O)N[C@@H](CCCN=C(N)N)C(=O)N[C@@H](CO)C(=O)N[C@@H](CC(C)C)C(=O)NCC(=O)N[C@@H](CCCN=C(N)N)C(=O)N[C@H](C(=O)N[C@@H](CC(C)C)C(=O)N[C@@H](CC(C)C)C(=O)N[C@@H](CCCN=C(N)N)C(=O)N[C@@H](CC(C)C)C(=O)N[C@@H](CO)C(=O)N[C@@H](Cc1cnc[nH]1)C(=O)N[C@@H](C)C(=O)N[C@@H](CC(C)C)C(=O)N[C@@H](CCCCN)C(=O)N1CCC[C@H]1C(=O)N[C@@H](CC(C)C)C(=O)N[C@@H](C)C(=O)N[C@@H](CCCN=C(N)N)C(=O)N[C@@H](CCCN=C(N)N)C(=O)N[C@@H](CO)C(=O)NCC(=O)N[C@@H](Cc1c[nH]c2ccccc12)C(N)=O)[C@@H](C)O` [WRSLGRTLLRLSHALKPLARRSGW], the MIC [1] was 7.87 µM (≈ 22.6 µg/mL), the MIC [2] was 2.1 µM (≈ 6.03 µg/mL) and the MIC (Escherichia coli K91BK) was ≥ 100 µM.

`CC[C@H](C)[C@H](NC(=O)[C@H](CCCCN)NC(=O)[C@H](CCCN=C(N)N)NC(=O)[C@H](CC(C)C)NC(=O)[C@@H](NC(=O)[C@H](CCCCN)NC(=O)CNC(=O)[C@H](CC(C)C)NC(=O)[C@@H](NC(=O)[C@H](CCCCN)NC(=O)[C@H](CC(N)=O)NC(=O)[C@H](CCCN=C(N)N)NC(=O)[C@H](C)NC(=O)[C@H](CCSC)NC(=O)[C@@H]1CCCN1)[C@@H](C)CC)[C@@H](C)CC)C(=O)N[C@@H](C)C(=O)N[C@@H](C)C(=O)N[C@@H](Cc1ccccc1)C(=O)N[C@@H](CCCCN)C(=O)O` [PMARNKILGKILRKIAAFK] showed an MIC [3] of 3.69 µM (≈ 8 µg/mL) and an MIC [13] of 29.5 µM (≈ 64 µg/mL).

With `CC(C)C[C@H](NC(=O)[C@H](Cc1c[nH]c2ccccc12)NC(=O)[C@H](CCCCN)NC(=O)[C@H](CC(C)C)NC(=O)[C@@H](N)Cc1ccccc1)C(=O)N[C@@H](Cc1ccccc1)C(=O)N[C@@H](CCCCN)C(=O)N[C@@H](Cc1c[nH]c2ccccc12)C(=O)N[C@@H](C)C(=O)N[C@@H](CCCCN)C(=O)N[C@@H](CCCCN)C(N)=O` [FLKWLFKWAKK] the MIC [14] was 2.07 µM (≈ 3.1 µg/mL), the MIC [15] was 8.36 µM (≈ 12.5 µg/mL) and the MIC [16] was 8.36 µM (≈ 12.5 µg/mL). It also gave an MIC [17] of 2.07 µM (≈ 3.1 µg/mL), an MIC [18] of 8.36 µM (≈ 12.5 µg/mL) and an MIC [19] of 33.4 µM (≈ 50 µg/mL). It also gave an MIC [20] of 16.7 µM (≈ 25 µg/mL), an MIC [21] of 4.21 µM (≈ 6.3 µg/mL) and an MIC [22] of 4.21 µM (≈ 6.3 µg/mL).
